In patent publication US20240158446A1, “CYCLIC COMPOUND HAVING SELECTIVE INHIBITORY ACTION ON KRAS OVER HRAS AND NRAS” (CHUGAI SEIYAKU KABUSHIKI KAISHA, priority 2021, published 2024):

How the values were obtained:
[1] = target: GDP-bound KRAS wild-type protein (Homo sapiens, UniProt P01116); experiment: Binding to KRAS by surface plasmon resonance (SPR), Single Cycle Kinetics; conditions: SPR, Single Cycle Kinetics, GDP-bound KRAS wild-type protein; read-out: KRAS KD
[2] = target: GDP-bound NRAS wild-type protein (Homo sapiens, UniProt P01111); experiment: Binding to NRAS by surface plasmon resonance (SPR), Single Cycle Kinetics; conditions: ratio of KD for GDP-bound NRAS wild-type protein to KD for KRAS, SPR
Chain of GDP-bound NRAS wild-type protein (P01111 whole entry): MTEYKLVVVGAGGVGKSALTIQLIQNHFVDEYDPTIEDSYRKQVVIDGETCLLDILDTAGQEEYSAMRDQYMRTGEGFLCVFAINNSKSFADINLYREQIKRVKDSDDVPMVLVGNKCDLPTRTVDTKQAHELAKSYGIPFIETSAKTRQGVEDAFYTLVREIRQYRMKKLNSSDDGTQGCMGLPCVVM

[3] = target: GDP-bound HRAS wild-type protein (Homo sapiens, UniProt P01112); experiment: Binding to HRAS by surface plasmon resonance (SPR), Single Cycle Kinetics; conditions: ratio of KD for GDP-bound HRAS wild-type protein to KD for KRAS, SPR
Chain of GDP-bound HRAS wild-type protein (P01112 whole entry): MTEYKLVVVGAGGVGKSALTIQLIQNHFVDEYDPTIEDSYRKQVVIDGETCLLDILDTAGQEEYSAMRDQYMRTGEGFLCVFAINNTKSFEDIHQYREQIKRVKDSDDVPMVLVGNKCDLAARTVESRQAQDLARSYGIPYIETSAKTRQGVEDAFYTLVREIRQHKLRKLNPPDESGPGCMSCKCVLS

[4] = test system: human lung cancer strain NCI-H441; experiment: cells; conditions: NCI-H441, 96 h, read-out: NCI-H441 IC50 (nM), NCI-H441 cell proliferation, 4 days, CellTiter-Glo;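 note: cell proliferation inhibition after four days measured by CellTiter-Glo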

Chain of GDP-bound KRAS wild-type protein (P01116 whole entry): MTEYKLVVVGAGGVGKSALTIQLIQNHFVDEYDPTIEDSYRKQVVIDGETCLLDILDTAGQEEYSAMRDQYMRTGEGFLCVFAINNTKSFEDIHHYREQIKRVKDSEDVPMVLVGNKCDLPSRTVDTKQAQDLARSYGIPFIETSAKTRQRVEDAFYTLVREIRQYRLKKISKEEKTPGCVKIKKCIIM

Row | SMILES | Kd [1] [nM] | IC50 [4] [nM] | NRAS/KRAS (KD ratio) [2] | HRAS/KRAS (KD ratio) [3]
1 | CCCC[C@H]1C(=O)N[C@@H]([C@@H](C)CC)C(=O)N(C)CC(=O)N(C)[C@H]2C/C=C\CCN(C2=O)[C@@H](Cc2ccc(C(F)(F)F)cc2)C(=O)N(C)CC(=O)N[C@@H](CCc2cc(F)c(C(F)(F)F)c(F)c2)C(=O)N2CC(F)(F)C[C@H]2C(=O)NC2(CC(C)(C)C2)C(=O)N(C)[C@@H](C2CCCC2)C(=O)N(C)[C@H](C(=O)N(C)C)CC(=O)N1C [PP1714] | 0.1 | 4.3 | A (a compound having 10 or more and less than 20 is denoted as A) | A (a compound having 10 or more and less than 20 is denoted as A)
2 | CCCN(C)C(=O)[C@@H]1CC(=O)N(C)[C@@H](CC(F)F)C(=O)N[C@@H]([C@@H](C)CC)C(=O)N(C)CC(=O)N(C)[C@H]2C/C=C\CCN(C2=O)[C@@H](Cc2ccc(C(F)(F)F)cc2)C(=O)N(C)CC(=O)N[C@@H](CCc2cc(F)c(C(F)(F)F)c(F)c2)C(=O)N2CCC[C@H]2C(=O)NC2(CC(C)(C)C2)C(=O)N(C)[C@@H](C2CCCC2)C(=O)N1C [PP1721] | 0.3 | 10 | A (a compound having 10 or more and less than 20 is denoted as A) | A (a compound having 10 or more and less than 20 is denoted as A)
3 | CC[C@H](C)[C@@H]1NC(=O)[C@H](CC(C)C)N(C)C(=O)C[C@@H](C(=O)N(C)C)N(C)C(=O)[C@H](C2CCCC2)N(C)C(=O)C2(CC(C)(C)C2)NC(=O)[C@@H]2CCCN2C(=O)[C@H](CCc2cc(F)c(C(F)(F)F)c(F)c2)NC(=O)CN(C)C(=O)[C@H](Cc2ccc(C(F)(F)F)cc2)N2CC/C=C\C[C@@H](C2=O)N(C)C(=O)CN(C)C1=O [PP1727] | 0.13 | 4 | A (a compound having 10 or more and less than 20 is denoted as A) | A (a compound having 10 or more and less than 20 is denoted as A)
4 | CC[C@H](C)[C@@H]1NC(=O)[C@H](CC2CCC2)N(C)C(=O)C[C@@H](C(=O)N(C)C)N(C)C(=O)[C@H](C2CCCC2)N(C)C(=O)C2(CC(C)(C)C2)NC(=O)[C@@H]2CCCN2C(=O)[C@H](CCc2cc(F)c(C(F)(F)F)c(F)c2)NC(=O)CN(C)C(=O)[C@H](Cc2ccc(C(F)(F)F)cc2)N2CC/C=C\C[C@@H](C2=O)N(C)C(=O)CN(C)C1=O [PP1728] | 0.16 | 18.3 | A (a compound having 10 or more and less than 20 is denoted as A) | A (a compound having 10 or more and less than 20 is denoted as A)
5 | CCCN(C)C(=O)[C@@H]1CC(=O)N(C)[C@@H](COC)C(=O)N[C@@H]([C@@H](C)CC)C(=O)N(C)CC(=O)N(C)[C@H]2C/C=C\CCN(C2=O)[C@@H](Cc2ccc(C(F)(F)F)cc2)C(=O)N(C)CC(=O)N[C@@H](CCc2cc(F)c(C(F)(F)F)c(F)c2)C(=O)N2CCC[C@H]2C(=O)NC2(CC(C)(C)C2)C(=O)N(C)[C@@H](C2CCCC2)C(=O)N1C [PP1729] | 0.2 | 20.6 | AA (a compound having 20 or more is denoted as AA) | A (a compound having 10 or more and less than 20 is denoted as A)
6 | CCCN(C)C(=O)[C@@H]1CC(=O)N(C)[C@@H](CC(F)F)C(=O)N[C@@H]([C@@H](C)CC)C(=O)N(C)CC(=O)N(C)[C@H]2C/C=C\CCN(C2=O)[C@@H](Cc2ccc(C(F)(F)F)cc2)C(=O)N(C)CC(=O)N[C@@H](CCc2cc(F)c(C(F)(F)F)c(F)c2)C(=O)N2C[C@H](OCC)C[C@H]2C(=O)NC2(CC(F)(F)C2)C(=O)N(C)[C@@H](C2CCCC2)C(=O)N1C [PP1733] | 0.11 | 3.8 | A (a compound having 10 or more and less than 20 is denoted as A) | A (a compound having 10 or more and less than 20 is denoted as A)
7 | CCCN(C)C(=O)[C@@H]1CC(=O)N(C)[C@@H](CC(F)(F)F)C(=O)N[C@@H]([C@@H](C)CC)C(=O)N(C)CC(=O)N(C)[C@H]2C/C=C\CCN(C2=O)[C@@H](Cc2ccc(C(F)(F)F)cc2)C(=O)N(C)CC(=O)N[C@@H](CCc2cc(F)c(C(F)(F)F)c(F)c2)C(=O)N2C[C@H](OCC)C[C@H]2C(=O)NC2(CC(F)(F)C2)C(=O)N(C)[C@@H](C2CCCC2)C(=O)N1C [PP1734] | 0.17 | 4.4 | A (a compound having 10 or more and less than 20 is denoted as A) | A (a compound having 10 or more and less than 20 is denoted as A)

Further compounds by falling Kd [1], results first:

Row | Kd [1] [nM] | IC50 [4] [nM] | SMILES | NRAS/KRAS (KD ratio) [2] | HRAS/KRAS (KD ratio) [3]
8 | 0.099 | 3.8 | CC[C@H](C)[C@@H]1NC(=O)[C@H](CC2CCC2)N(C)C(=O)C[C@@H](C(=O)N(C)C)N(C)C(=O)[C@H](C2CCCC2)N(C)C(=O)C2(CC(C)(C)C2)NC(=O)[C@@H]2CC(F)(F)CN2C(=O)[C@H](CCc2cc(F)c(C(F)(F)F)c(F)c2)NC(=O)CN(C)C(=O)[C@H](Cc2ccc(C(F)(F)F)cc2)N2CC/C=C\C[C@@H](C2=O)N(C)C(=O)CN(C)C1=O [PP1716] | AA (a compound having 20 or more is denoted as AA) | A (a compound having 10 or more and less than 20 is denoted as A)
9 | 0.099 | 6.4 | CCCN(C)C(=O)[C@@H]1CC(=O)N(C)[C@@H](CC)C(=O)N[C@@H]([C@@H](C)CC)C(=O)N(C)CC(=O)N(C)[C@H]2C/C=C\CCN(C2=O)[C@@H](Cc2ccc(C(F)(F)F)cc2)C(=O)N(C)CC(=O)N[C@@H](CCc2cc(F)c(C(F)(F)F)c(F)c2)C(=O)N2C[C@H](OCC)C[C@H]2C(=O)NC2(CC(F)(F)C2)C(=O)N(C)[C@@H](C2CCCC2)C(=O)N1C [PP1732] | AA (a compound having 20 or more is denoted as AA) | A (a compound having 10 or more and less than 20 is denoted as A)
10 | 0.096 | 7.9 | CC[C@H](C)[C@@H]1NC(=O)[C@H](CC2CC2)N(C)C(=O)C[C@@H](C(=O)N(C)C)N(C)C(=O)[C@H](C2CCCC2)N(C)C(=O)C2(CC(C)(C)C2)NC(=O)[C@@H]2CC(F)(F)CN2C(=O)[C@H](CCc2cc(F)c(C(F)(F)F)c(F)c2)NC(=O)CN(C)C(=O)[C@H](Cc2ccc(C(F)(F)F)cc2)N2CC/C=C\C[C@@H](C2=O)N(C)C(=O)CN(C)C1=O [PP1713] | A (a compound having 10 or more and less than 20 is denoted as A) | A (a compound having 10 or more and less than 20 is denoted as A)
11 | 0.07 | 7.4 | CCCN(C)C(=O)[C@@H]1CC(=O)N(C)[C@@H](C)C(=O)N[C@@H]([C@@H](C)CC)C(=O)N(C)CC(=O)N(C)[C@H]2C/C=C\CCN(C2=O)[C@@H](Cc2ccc(C(F)(F)F)cc2)C(=O)N(C)CC(=O)N[C@@H](CCc2cc(F)c(C(F)(F)F)c(F)c2)C(=O)N2C[C@H](OCC)C[C@H]2C(=O)NC2(CC(F)(F)C2)C(=O)N(C)[C@@H](C2CCCC2)C(=O)N1C [PP1731] | A (a compound having 10 or more and less than 20 is denoted as A) | A (a compound having 10 or more and less than 20 is denoted as A)
12 | 0.067 | 2.5 | CCCOC[C@H]1C(=O)N[C@@H]([C@@H](C)CC)C(=O)N(C)CC(=O)N(C)[C@H]2C/C=C\CCN(C2=O)[C@@H](Cc2ccc(C(F)(F)F)cc2)C(=O)N(C)CC(=O)N[C@@H](CCc2cc(F)c(C(F)(F)F)c(F)c2)C(=O)N2CC(F)(F)C[C@H]2C(=O)NC2(CC(C)(C)C2)C(=O)N(C)[C@@H](C2CCCC2)C(=O)N(C)[C@H](C(=O)N(C)C)CC(=O)N1C [PP1718] | AA (a compound having 20 or more is denoted as AA) | A (a compound having 10 or more and less than 20 is denoted as A)
13 | 0.061 | 2.7 | CC[C@H](C)[C@@H]1NC(=O)[C@H](CC(C)C)N(C)C(=O)C[C@@H](C(=O)N(C)C)N(C)C(=O)[C@H](C2CCCC2)N(C)C(=O)C2(CC(C)(C)C2)NC(=O)[C@@H]2CC(F)(F)CN2C(=O)[C@H](CCc2cc(F)c(C(F)(F)F)c(F)c2)NC(=O)CN(C)C(=O)[C@H](Cc2ccc(C(F)(F)F)cc2)N2CC/C=C\C[C@@H](C2=O)N(C)C(=O)CN(C)C1=O [PP1715] | AA (a compound having 20 or more is denoted as AA) | A (a compound having 10 or more and less than 20 is denoted as A)
14 | 0.06 | 1.8 | CC[C@H](C)[C@@H]1NC(=O)[C@H](CC(F)(F)F)N(C)C(=O)C[C@@H](C(=O)N(C)C)N(C)C(=O)[C@H](C2CCCC2)N(C)C(=O)C2(CC(C)(C)C2)NC(=O)[C@@H]2CCCN2C(=O)[C@H](CCc2cc(F)c(C(F)(F)F)c(F)c2)NC(=O)CN(C)C(=O)[C@H](Cc2ccc(C(F)(F)F)cc2)N2CC/C=C\C[C@@H](C2=O)N(C)C(=O)CN(C)C1=O [PP1722] | AA (a compound having 20 or more is denoted as AA) | A (a compound having 10 or more and less than 20 is denoted as A)
15 | 0.051 | 2.4 | CC[C@H](C)[C@@H]1NC(=O)[C@H](COC)N(C)C(=O)C[C@@H](C(=O)N(C)C)N(C)C(=O)[C@H](C2CCCC2)N(C)C(=O)C2(CC(C)(C)C2)NC(=O)[C@@H]2CC(F)(F)CN2C(=O)[C@H](CCc2cc(F)c(C(F)(F)F)c(F)c2)NC(=O)CN(C)C(=O)[C@H](Cc2ccc(C(F)(F)F)cc2)N2CC/C=C\C[C@@H](C2=O)N(C)C(=O)CN(C)C1=O [PP1717] | A (a compound having 10 or more and less than 20 is denoted as A) | A (a compound having 10 or more and less than 20 is denoted as A)
